Results as given in ChEMBL document CHEMBL1743201, “Casarett and Doull's Toxicology The Basic Science of Poisons, 7th edition” (2008).
One block for each compound: values may come before it.

Key:
Type in all cases: ADME
[1] = target: T1, Glutathione S-transferase kappa 1 (Homo sapiens, UniProt Q9Y2Q3); test: Substrates for human mitochondrial glutathione transferase GSTK1
T1 sequence (Q9Y2Q3 whole entry): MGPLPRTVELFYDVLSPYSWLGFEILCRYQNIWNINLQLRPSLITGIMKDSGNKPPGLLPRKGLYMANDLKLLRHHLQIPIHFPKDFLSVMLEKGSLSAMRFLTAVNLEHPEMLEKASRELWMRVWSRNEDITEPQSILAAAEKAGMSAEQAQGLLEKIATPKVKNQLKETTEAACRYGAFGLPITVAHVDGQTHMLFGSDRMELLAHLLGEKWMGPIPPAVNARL

[2] = target: T2, Maleylacetoacetate isomerase (Homo sapiens, UniProt O43708); test: Substrates for human cytosolic glutathione transferase GSTZ1
T2 sequence (O43708 whole entry): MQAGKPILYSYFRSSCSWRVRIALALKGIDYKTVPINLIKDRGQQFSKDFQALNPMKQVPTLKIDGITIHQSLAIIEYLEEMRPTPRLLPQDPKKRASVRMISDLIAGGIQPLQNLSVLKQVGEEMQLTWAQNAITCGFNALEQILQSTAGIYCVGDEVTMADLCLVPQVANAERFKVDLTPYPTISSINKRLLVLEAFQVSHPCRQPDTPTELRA

[3] = target: T3, Glutathione S-transferase A4 (Homo sapiens, UniProt O15217); test: Substrates for human cytosolic glutathione transferase GSTA4
T3 sequence (O15217 whole entry): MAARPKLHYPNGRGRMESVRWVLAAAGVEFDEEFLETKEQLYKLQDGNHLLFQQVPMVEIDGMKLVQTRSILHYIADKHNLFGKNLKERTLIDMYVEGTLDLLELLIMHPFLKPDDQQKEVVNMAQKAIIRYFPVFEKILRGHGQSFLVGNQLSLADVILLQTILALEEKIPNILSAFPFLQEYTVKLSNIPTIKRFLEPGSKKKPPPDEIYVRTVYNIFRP

[4] = target: Glutathione S-transferase P (Homo sapiens, UniProt P09211); test: Substrates for human cytosolic glutathione transferase GSTP1
[5] = target: T4, Glutathione S-transferase Mu 2 (Homo sapiens, UniProt P28161); test: Substrates for human cytosolic glutathione transferase GSTM2
T4 sequence (P28161 whole entry): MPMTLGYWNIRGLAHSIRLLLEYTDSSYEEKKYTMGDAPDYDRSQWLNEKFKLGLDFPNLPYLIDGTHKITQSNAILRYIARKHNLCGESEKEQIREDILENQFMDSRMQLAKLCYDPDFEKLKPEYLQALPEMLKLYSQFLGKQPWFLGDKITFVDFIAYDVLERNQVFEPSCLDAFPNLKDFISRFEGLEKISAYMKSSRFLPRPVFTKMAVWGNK

[6] = target: T5, UDP-glucuronosyltransferase 2B4 (Homo sapiens, UniProt P06133); test: Substrate of human UDP-glucuronosyltransferase UGT2B4
T5 sequence (P06133 whole entry): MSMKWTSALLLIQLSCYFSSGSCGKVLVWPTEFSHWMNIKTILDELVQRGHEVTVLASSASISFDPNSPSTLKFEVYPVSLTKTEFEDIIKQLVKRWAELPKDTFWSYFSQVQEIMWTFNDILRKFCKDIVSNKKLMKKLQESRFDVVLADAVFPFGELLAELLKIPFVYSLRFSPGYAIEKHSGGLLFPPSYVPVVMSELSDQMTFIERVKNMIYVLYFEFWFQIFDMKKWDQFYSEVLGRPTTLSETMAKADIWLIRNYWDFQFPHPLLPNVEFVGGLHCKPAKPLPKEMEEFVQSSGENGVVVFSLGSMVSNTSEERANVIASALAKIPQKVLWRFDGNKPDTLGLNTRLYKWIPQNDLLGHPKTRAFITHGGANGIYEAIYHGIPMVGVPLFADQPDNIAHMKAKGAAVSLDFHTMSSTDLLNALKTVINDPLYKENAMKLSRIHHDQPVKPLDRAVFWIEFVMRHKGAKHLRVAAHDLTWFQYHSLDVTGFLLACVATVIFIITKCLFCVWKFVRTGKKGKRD

[7] = target: T6, UDP-glucuronosyltransferase 1A1 (Homo sapiens, UniProt P22309); test: Substrate of human UDP-glucuronosyltransferase UGT1A1
T6 sequence (P22309 whole entry): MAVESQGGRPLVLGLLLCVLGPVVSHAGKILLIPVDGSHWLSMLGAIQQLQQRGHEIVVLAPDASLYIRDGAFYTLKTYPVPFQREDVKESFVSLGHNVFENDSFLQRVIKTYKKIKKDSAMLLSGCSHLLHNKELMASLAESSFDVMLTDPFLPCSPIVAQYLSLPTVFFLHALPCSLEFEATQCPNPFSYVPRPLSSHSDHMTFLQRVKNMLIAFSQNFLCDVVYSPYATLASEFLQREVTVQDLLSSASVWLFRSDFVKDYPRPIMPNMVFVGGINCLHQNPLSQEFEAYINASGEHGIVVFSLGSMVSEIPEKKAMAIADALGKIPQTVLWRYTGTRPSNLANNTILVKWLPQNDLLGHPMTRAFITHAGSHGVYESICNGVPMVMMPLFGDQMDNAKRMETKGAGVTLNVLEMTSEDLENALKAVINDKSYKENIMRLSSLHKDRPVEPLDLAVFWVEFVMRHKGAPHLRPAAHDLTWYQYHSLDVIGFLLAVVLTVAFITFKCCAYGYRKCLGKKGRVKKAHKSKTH

[8] = target: T7, UDP-glucuronosyltransferase 2B7 (Homo sapiens, UniProt P16662); test: Substrate of human UDP-glucuronosyltransferase UGT2B7
T7 sequence (P16662 whole entry): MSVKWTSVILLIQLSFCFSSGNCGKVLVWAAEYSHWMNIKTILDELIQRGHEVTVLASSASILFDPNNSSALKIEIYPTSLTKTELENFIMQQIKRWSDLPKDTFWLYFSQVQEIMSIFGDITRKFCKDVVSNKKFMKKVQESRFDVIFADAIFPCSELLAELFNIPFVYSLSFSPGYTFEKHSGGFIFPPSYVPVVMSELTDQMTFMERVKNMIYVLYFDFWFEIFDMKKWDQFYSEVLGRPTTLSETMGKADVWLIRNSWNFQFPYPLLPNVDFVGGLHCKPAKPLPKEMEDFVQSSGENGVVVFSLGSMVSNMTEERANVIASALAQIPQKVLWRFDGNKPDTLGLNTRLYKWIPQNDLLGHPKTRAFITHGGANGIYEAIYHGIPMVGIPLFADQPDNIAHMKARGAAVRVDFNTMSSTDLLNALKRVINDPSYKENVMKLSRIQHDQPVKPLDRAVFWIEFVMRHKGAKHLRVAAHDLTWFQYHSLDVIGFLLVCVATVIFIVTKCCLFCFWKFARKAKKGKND

[9] = target: T8, Cytochrome P450 2C8 (Homo sapiens, UniProt P10632); test: Clinically relevant substrates of human liver microsomal P450 enzymes, isoform CYP2C8; conditions: microsomes
T8 sequence (P10632 whole entry): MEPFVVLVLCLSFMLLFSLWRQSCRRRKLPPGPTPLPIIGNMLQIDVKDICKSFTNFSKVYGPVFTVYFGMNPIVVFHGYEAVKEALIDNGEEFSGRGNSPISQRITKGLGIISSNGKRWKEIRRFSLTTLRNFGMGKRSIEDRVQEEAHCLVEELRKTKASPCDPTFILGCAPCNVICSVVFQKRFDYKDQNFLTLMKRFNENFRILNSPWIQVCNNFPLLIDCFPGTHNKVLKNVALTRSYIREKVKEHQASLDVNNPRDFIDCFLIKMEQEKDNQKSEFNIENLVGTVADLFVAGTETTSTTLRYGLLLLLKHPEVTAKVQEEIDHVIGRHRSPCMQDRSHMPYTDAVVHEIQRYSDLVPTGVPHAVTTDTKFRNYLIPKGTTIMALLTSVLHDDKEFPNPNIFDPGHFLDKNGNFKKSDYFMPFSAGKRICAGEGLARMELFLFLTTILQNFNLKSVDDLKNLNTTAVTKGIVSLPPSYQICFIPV

[10] = target: T9, UDP-glucuronosyltransferase 2B15 (Homo sapiens, UniProt P54855); test: Substrate of human UDP-glucuronosyltransferase UGT2B15
T9 sequence (P54855 whole entry): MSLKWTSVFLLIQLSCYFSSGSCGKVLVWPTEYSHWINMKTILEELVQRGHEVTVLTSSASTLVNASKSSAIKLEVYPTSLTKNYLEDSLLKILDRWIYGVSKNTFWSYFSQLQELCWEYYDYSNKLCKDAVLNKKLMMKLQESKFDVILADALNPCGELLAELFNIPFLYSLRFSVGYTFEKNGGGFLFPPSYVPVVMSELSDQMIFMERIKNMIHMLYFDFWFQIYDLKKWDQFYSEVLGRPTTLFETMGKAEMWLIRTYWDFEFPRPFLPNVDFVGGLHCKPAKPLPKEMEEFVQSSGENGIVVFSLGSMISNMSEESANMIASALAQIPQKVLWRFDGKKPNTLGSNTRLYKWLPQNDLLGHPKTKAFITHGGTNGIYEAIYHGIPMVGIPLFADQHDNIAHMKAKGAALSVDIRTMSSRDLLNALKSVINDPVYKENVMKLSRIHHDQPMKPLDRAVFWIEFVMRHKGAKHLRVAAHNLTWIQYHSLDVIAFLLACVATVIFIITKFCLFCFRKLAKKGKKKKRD

Glutathione S-transferase P, sequence (P09211 whole entry): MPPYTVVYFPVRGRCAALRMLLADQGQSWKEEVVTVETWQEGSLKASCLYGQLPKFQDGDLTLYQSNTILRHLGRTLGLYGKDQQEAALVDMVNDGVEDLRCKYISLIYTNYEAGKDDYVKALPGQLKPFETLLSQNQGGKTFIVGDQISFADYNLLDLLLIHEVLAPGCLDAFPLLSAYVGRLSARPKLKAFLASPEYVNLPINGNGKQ

SMILES: CCCCC[C@@H](/C=C/C=C\C/C=C\C/C=C\CCCC(=O)O)OO
- Activity [1]: Substrate

SMILES: CC(Cl)C(=O)O (stereo not given)
- Activity [2]: Substrate

SMILES: C/C=C/C(=O)OCC1=CCCCC1=O
- Activity [4]: Substrate
- Activity [5]: Substrate
- Activity [3]: Substrate

SMILES: COc1ccccc1OCCNCC(O)COc1cccc2[nH]c3ccccc3c12 (stereo not given) [CARVEDILOL]
- Activity [6]: Substrate
- Activity [7]: Substrate
- Activity [8]: Substrate

SMILES: O=C(O)C(Cl)Cl [DICHLOROACETIC ACID]
- Activity [2]: Substrate

SMILES: C[C@]12CC[C@@H]3c4ccc(O)cc4CC[C@H]3[C@@H]1C[C@@H](O)[C@@H]2O [ESTRIOL]
- Activity [6]: Substrate
- Activity [10]: Substrate

Second part, the compound after the results:

- Activity [3]: Substrate
SMILES: CCCCCCC(O)/C=C/C=O (stereo not given)

- Activity [1]: Substrate
SMILES: CCCCC/C=C\C/C=C\C/C=C\C=C\CCCCC(=O)O

- Activity [3]: Substrate
SMILES: CCCCCC(O)/C=C/C=O (stereo not given) [4-HYDROXYNON-2-ENAL]

- Activity [9]: Substrate
SMILES: COCc1c(C(C)C)nc(C(C)C)c(/C=C/[C@@H](O)C[C@@H](O)CC(=O)O)c1-c1ccc(F)cc1 [CERIVASTATIN]
